Source: US20140023611A1 (priority 2010, published 2014)

Tests used:
rat NaP2b (SLC34A2) [1] = target: T1, rat NaP2b (SLC34A2) (Rattus norvegicus, UniProt Q9JJ09); experiment: NaP2b-mediated Pi transport (33P uptake) in transfected HEK293 cells, rat NaP2b; format: cell-based; conditions: Structure (V) examples, Table 2; rat NaP2b, HEK293; read-out: pIC50 Range (converted)
T1 construct: host or cells: HEK293
T1 sequence (Q9JJ09 1-695): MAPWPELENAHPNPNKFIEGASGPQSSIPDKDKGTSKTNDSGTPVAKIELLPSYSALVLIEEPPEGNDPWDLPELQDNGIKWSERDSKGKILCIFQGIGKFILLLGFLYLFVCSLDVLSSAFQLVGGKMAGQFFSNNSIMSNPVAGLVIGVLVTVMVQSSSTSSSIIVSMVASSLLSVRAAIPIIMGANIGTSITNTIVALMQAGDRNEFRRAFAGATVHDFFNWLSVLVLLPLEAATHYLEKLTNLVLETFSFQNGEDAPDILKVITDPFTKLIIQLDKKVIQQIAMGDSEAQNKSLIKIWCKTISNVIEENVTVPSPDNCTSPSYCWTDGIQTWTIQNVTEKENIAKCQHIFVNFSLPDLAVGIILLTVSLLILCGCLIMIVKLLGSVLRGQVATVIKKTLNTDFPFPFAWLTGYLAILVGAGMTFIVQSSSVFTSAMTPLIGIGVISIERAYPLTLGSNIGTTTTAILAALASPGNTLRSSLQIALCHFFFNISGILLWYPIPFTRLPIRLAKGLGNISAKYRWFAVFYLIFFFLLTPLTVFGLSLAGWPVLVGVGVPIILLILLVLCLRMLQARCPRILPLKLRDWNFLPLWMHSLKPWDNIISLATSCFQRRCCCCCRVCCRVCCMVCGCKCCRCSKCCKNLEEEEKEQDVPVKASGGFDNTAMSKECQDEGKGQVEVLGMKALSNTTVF
Method: HEK293 cells were obtained from the American Type Culture collection and propagated per their instructions. Expression clones for rat and human NaP2b (SLC34A2) were obtained from Open Biosystems (Catalog numbers MRN1768-9510282, and MHS1010-99823026, respectively). The sequence of the human protein was mutated to insert a threonine after residue 37, and to introduce a N39D mutation.
(§1) The rate of phosphate (Pi) uptake into HEK293 cells was measured using a modification of the method described by Mohrmann et al. (Mohrmann, I., Mohrmann, M., Biber, J., and Murer, H. (1986) Am. J. Phys. 250(3 Pt 1):G323-30.) Transfected HEK293 cells were treated with a pharmacological agent to minimize endogenous PiT-mediated phosphate transport activity, such that the only remaining sodium-dependent phosphate transport activity is that which was bestowed by introduction of the NaP2b genes.
(§2) Cells were seeded into 96-well plates at 25,000 cells/well and cultured overnight. Lipofectamine 2000 (Invitrogen) was used to introduce the NaP2b cDNA, and the cells were allowed to approach confluence during a second overnight incubation. […] Cells were then overlayed with either choline uptake buffer or sodium uptake buffer (14 mM Tris, 137 mM sodium chloride, 5.4 mM KCl, 2.8 mM CaCl2, 1.2 mM MgSO4, 100 uM KH2PO4, PiT-silencing agent, 1 mg/mL Bovine Serum Albumin, pH 7.4) containing 6-9 uCi/mL ^33P orthophosphoric acid (Perkin Elmer) and test compound. Each compound was tested at twelve concentrations ranging from 0.1 nM to 30 uM. Assays were run in duplicate.
After incubation for 3-30 minutes at room temperature, assay mixtures were removed, and the cells were washed twice with ice cold stop solution (137 mM sodium chloride, 14 mM Tris, pH 7.4). Cells were lysed by addition of 20 μL 0.1% Tween 80 followed by 100 μL scintillation fluid, and counted using a TopCount (Perkin Elmer).
pIC50 (the negative log of the IC50) values of the test compounds were calculated using GraphPad Prism.
HEK293 cells were obtained from the American Type Culture collection and propagated per their instructions. Expression clones for rat and mouse NaP2b (SLC34A2) cDNAs were obtained from Open Biosystems (Catalog numbers MRN1768-9510282 and MMM1013-98478398 respectively).
as §1, with “phosphate” for “phosphate (Pi)”
as §2, with “agent, 0.1% wt/v bovine serum albumin,” for “agent, 1 mg/mL Bovine Serum Albumin,”, “Each compounds” for “Each compound”
After incubation for 3-30 minutes at room temperature, assay mixtures were removed, and the cells were washed twice with ice cold stop solution (137 mM sodium chloride, 14 mM Tris, pH 7.4).

[2] = Stability of compounds in simulated gastric fluid (SGF); format: in vitro ADME; conditions: simulated gastric fluid (3 mg/mL pepsin), incubation time 6 hr, relative to t=0
How it was run: (§3)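 Compounds at […] were incubated 3 or 6 hr in USP simulated gastric fluid with 3 mg/mL pepsin or simulated intestinal fluid with 3 mg/mL pancreatin. Remaining compound was quantified by HPLC-UV or HPLC-MS peak area % and reported as percent of the t=0 level in the same medium.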

[3] = Determination of compound Cmax and AUC after oral gavage (plasma LC-MS/MS); format: in vivo, Sprague-Dawley rats; conditions: Sprague-Dawley, rat, plasma, po, Structure (I) examples
How it was run: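 Plasma exposure measured by LC-MS/MS after acetonitrile precipitation with internal standard, quantified against a standard curve made in plasma. Compound given orally by gavage to Sprague-Dawley rats at nominal 2.5 or 10 mg/kg, with K2EDTA plasma sampled at 0.5, 1, 2 and 4 h.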

[4] = Fecal recovery of orally administered compounds; format: in vivo, Sprague-Dawley rats; conditions: Structure (I) examples, Table 16; rat, oral gavage, feces collected until 48 hr after dosing
Text: (§4) The animals were kept in metabolic cages and feces were collected from the time of dosing until 48 hr after dosing. Upon collection, feces were dried by lyophilization and ground to a visually homogenous powder. Duplicate samples of ground feces from each individual animal were weighed out and extracted using organic solvent. […] Extraction conditions were not optimized for individual compounds, and thus may represent a minimal level of recovery.
as §4, with “collection, feces was dried by” for “collection, feces were dried by”
as §4, with “collection, feces was dried by” for “collection, feces were dried by”
The animals were kept in metabolic cages and feces were collected from the time of dosing until 48 hr after dosing. Upon collection, feces was dried by lyophilization and ground to a visually homogenous powder. Duplicate samples of ground feces from each individual animal were weighed out and extracted using organic solvent.

[5] = Stability of compounds in simulated intestinal fluid (SIF); format: in vitro ADME; conditions: simulated intestinal fluid (3 mg/mL pancreatin), incubation time 6 hr, relative to t=0
How it was run: as §3

rat NaP2b (SLC34A2) [6] = target: T1, rat NaP2b (SLC34A2); experiment: Inhibition of NaP2b-mediated Pi (33P) uptake in transfected HEK293 cells, rat NaP2b; format: cell-based; conditions: 33P Pi uptake, 0.1 mM phosphate, value given as pIC50 range
How it was run: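 The cells transiently expressed NaP2b after Lipofectamine transfection. Each compound was run in duplicate over twelve concentrations, 0.1 nM–30 uM.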

human NaP2b (SLC34A2) = target: T2, human NaP2b (SLC34A2) (Homo sapiens, UniProt O95436); experiment: Inhibition of NaP2b-mediated Pi (33P) uptake in transfected HEK293 cells, human NaP2b; format: cell-based; conditions: read-out: pIC50 range for human NaP2b (converted)
T2 construct: host or cells: HEK293
T2 sequence (O95436 1-690): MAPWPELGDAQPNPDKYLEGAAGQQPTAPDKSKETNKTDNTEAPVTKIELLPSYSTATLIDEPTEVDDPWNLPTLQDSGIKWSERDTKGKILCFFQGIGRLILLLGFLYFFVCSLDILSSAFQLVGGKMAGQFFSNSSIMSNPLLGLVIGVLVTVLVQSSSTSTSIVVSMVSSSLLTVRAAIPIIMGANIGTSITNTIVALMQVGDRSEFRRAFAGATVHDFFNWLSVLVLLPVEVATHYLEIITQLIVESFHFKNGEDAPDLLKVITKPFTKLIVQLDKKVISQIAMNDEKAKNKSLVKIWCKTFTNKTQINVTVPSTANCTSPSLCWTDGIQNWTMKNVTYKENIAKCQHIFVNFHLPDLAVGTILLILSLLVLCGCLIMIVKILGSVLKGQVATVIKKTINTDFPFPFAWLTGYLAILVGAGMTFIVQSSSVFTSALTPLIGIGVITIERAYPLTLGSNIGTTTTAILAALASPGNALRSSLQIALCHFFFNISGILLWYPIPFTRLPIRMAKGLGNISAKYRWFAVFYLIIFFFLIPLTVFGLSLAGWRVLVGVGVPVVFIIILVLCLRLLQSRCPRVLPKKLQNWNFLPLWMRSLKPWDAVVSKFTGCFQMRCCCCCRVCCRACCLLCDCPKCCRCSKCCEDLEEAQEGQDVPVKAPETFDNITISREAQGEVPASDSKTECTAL
How it was run: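 Uptake of 33P-phosphate (100 uM KH2PO4 carrier, sodium vs choline buffer, pH 7.4) measured after 3-30 min at room temperature, with test compound at twelve concentrations from 0.1 nM to 30 uM in duplicate. Cells were HEK293 transfected with mutated human NaP2b (Thr insertion after 37, N39D) and treated with a PiT-silencing agent. pIC50 values from scintillation counts.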

[7] = Table 15, actual oral dose 3-15 mg/kg, plasma 0.5-4 h

Compound | IC50 (rat NaP2b (SLC34A2) [1]) | % remaining, SGF [2] | AUC [3, 7] | Cmax [3, 7] | % recovered in feces [4] | % remaining, SIF [5] | IC50 (rat NaP2b (SLC34A2) [6]) | AUC ([3]; Table 15, actual oral dose 15-40 mg/kg, plasma 0.5-4 h) | Cmax ([3]; Table 15, plasma 0.5-4 h) | IC50 (human NaP2b (SLC34A2))
CC(C)(SCc1cccc(C(=O)Nc2ccc(N3CCCCC3)cc2-c2cc(C(=O)NCc3cccc(C(F)(F)F)c3)ccn2)c1)C(=O)O [Example 8.6] |  | >80% | > 50 ng·h/mL | < 50 ng/mL | 20-80% | >80% | 1 to 7.94 µM |  |  | 
CCN(CC)c1ccc(NC(=O)c2cccc(CCCOCCOCCOCCOCCC(=O)N3CCN(C(=O)c4cccc(CCCOCCOCCOCCOCCOCCOCCOCCOCCOC)c4)CC3)c2)c(-c2cc(C(=O)NCc3cccc(C(F)(F)F)c3)ccn2)c1 [Example 262, 2-(2-(3-(16-(4-(3-(2,5,8,11,14,17,20,23,26-nonaoxanonacosan-29-yl)benzoyl)piperazin-1-yl)-16-oxo-4,7,10,13-tetraoxahexadecyl)benzamido)-5-(diethylamino)phenyl)-N-(3-(trifluoromethyl)benzyl)isonicotinamide] |  |  |  |  | 20-80% |  | 1 to 7.94 µM | < 50 ng·h/mL | < 10 ng/mL | 1 to 7.94 µM
O=C(O)CCOCCOCCOCCNC(=O)c1cccc(SCc2cccc(C(=O)Nc3ccc(Cl)cc3-c3cc(C(=O)NCc4cccc(C(F)(F)F)c4)ccn3)c2)c1 [Example 264, 1-(3-(3-(4-chloro-2-(4-(3-(trifluoromethyl)benzylcarbamoyl)pyridin-2-yl)phenylcarbamoyl)benzylthio)phenyl)-1-oxo-5,8,11-trioxa-2-azatetradecan-14-oic acid] |  | 40-60% | < 10 ng·h/mL | < 10 ng/mL | <20% | >80% | 10 to 31.6 µM |  |  | 
CCN(CC)c1ccc(NC(=O)c2cccc(CCCOCCOCCOCCOCCNS(=O)(=O)c3ccc(CCC(=O)O)cc3)c2)c(-c2cc(C(=O)NCc3cccc(C(F)(F)F)c3)ccn2)c1 [Example 294, 3-(4-(N-(15-(3-(4-(diethylamino)-2-(4-(3-(trifluoromethyl)benzylcarbamoyl)pyridin-2-yl)phenylcarbamoyl)phenyl)-3,6,9,12-tetraoxapentadecyl)sulfamoyl)phenyl)propanoic acid] |  |  | > 50 ng·h/mL | < 10 ng/mL | >80% |  | < 1 µM |  |  | < 1 µM

Other lines, results leading:

IC50 (rat NaP2b (SLC34A2) [1]) | % remaining, SGF [2] | AUC [3, 7] | Cmax [3, 7] | % recovered in feces [4] | % remaining, SIF [5] | IC50 (rat NaP2b (SLC34A2) [6]) | AUC ([3]; Table 15, actual oral dose 15-40 mg/kg, plasma 0.5-4 h) | Cmax ([3]; Table 15, plasma 0.5-4 h) | IC50 (human NaP2b (SLC34A2)) | Compound
10 to 100 µM |  |  |  |  |  |  |  |  |  | O=C(Nc1ccc(N2CCCCC2)cc1C(=O)N/N=C/c1ccc(Cl)c(C(F)(F)F)c1)c1cccc(Cn2cc(CCOCCOCCOCCNC(=O)C(O)C(O)C(=O)O)nn2)c1 (stereo not shown) [Ex. 27]
10 to 100 µM |  |  |  |  |  |  |  |  |  | O=C(CCOCCOCCOCCOCCOCCOCCOCCOCCSCc1cccc(C(=O)Nc2ccc(N3CCCCC3)cc2C(=O)N/N=C/c2ccc(Cl)c(C(F)(F)F)c2)c1)N[C@H]1C(O)O[C@H](CO)[C@@H](O)[C@@H]1O (stereo partly shown) [Ex. 28]
0.1 to 0.794 µM |  |  |  |  |  |  |  |  |  | O=C(O)CCOCCOCCOCCOCCOCCOCCOCCOCCSCc1cccc(C(=O)Nc2ccc(Cl)cc2C(=O)N/N=C/c2ccc(Cl)c(C(F)(F)F)c2)c1 [Ex. 29]
 | >80% | < 10 ng·h/mL | < 10 ng/mL | <20% | >80% | 1 to 7.94 µM |  |  |  | O=C(O)CCOCCOCCOCCNC(=O)Cc1cccc(SCc2cccc(C(=O)Nc3ccc(N4CCCCC4)cc3-c3cc(C(=O)NCc4cccc(C(F)(F)F)c4)ccn3)c2)c1 [Example 137]
